Read-outs that look alike come from different tables or passages of the source.
Tests used:
Caco-2 cells = assay: Counter-screen on Caco-2 cells, ATP level by luminescence (ATPlite), 48 h incubation; assay type: cell-based, human; settings: Homo sapiens, Caco-2, 48 h, atmospheric O2, 5% CO2, 48 h, 37 °C
Procedure: Trophozoites of G. intestinalis strain WB clone C6 (ATCC No. 50803TM) were cultured axenically at 37^∘C in 25-cm^2 flasks containing Diamond’s TYI-S-33 medium supplemented with 10% bovine calf serum, 1 mg/mL bovine bile, 0.1 g/L streptomycin and 100 U/mL penicillin. […] Human epithelial colorectal adenocarcinoma (Caco-2) cells were grown in 25-cm^2 flasks in EMEM supplemented with 1% (v/v) non-essential amino acids, 2 mM glutamine, 5% (v/v) fetal bovine serum, 0.1 g/L streptomycin, and 100 U/mL penicillin.
Cells were detached with 0.5% trypsin-EDTA and seeded in sterile 96-well white clear-bottom plates at the same density of Giardia trophozoites and at increasing concentration of the compound to be tested, as described above. The assays were carried out exactly as reported for the Giardia trophozoites, except that the plates were incubated (still at 37^∘C) at atmospheric O2 level, 5% CO2, and 95% humidity. Each drug concentration was tested in at least seven replicates. MTZ was used as an internal […] control in the assay. Following 48 h incubation with each compound, according to the manufacturer instructions, 100 μL of the ATPlite^TM luminescence assay system (Perkin Elmer) was added to each well for one-step lysis and ATP level detection by luminescence.
Luminometric data were calibrated using ATP standard curves and normalized to the ATP level measured in control DMSO-treated cells (taken as 100%). The measured ATP level percentage was plotted as a function of the compound concentration and the half-maximal inhibitory concentration (IC50) was obtained by fitting the resulting titration profile to the Hill equation ([Goutelle et al., 2008]). The selectivity index (SI) of the compounds was then calculated as the ratio between the IC50 value measured on human cells over the value determined on Giardia trophozoites (SI = IC50,Caco-2/IC50,Giardia).
Selectivity of the newly synthesized compounds toward Giardia was assessed by running a counter-screen on human epithelial Caco-2 cells. […] This allowed us to calculate the compounds SI, defined as the ratio between the IC50 value measured on human cells over the value determined on Giardia trophozoites.

[1] = tested on: Giardia intestinalis trophozoites; assay: Drug susceptibility of Giardia trophozoites, ATP level by luminescence (BacTiter-Glo), 48 h incubation, anaerobic or microaerobic; assay type: cell-based, Giardia intestinalis strain WB clone C6; settings: for IC50: Giardia duodenalis, 48 h, 37 °C, ATP level; for selectivity ratio at 48 h: human (Caco-2 cells) versus Giardia intestinalis, Caco-2, SI = IC50,Caco-2/IC50,Giardia; for fold more efficient than MTZ against Giardia: anaerobic conditions, relative to MTZ
Procedure: Trophozoites of G. intestinalis strain WB clone C6 (ATCC No. 50803TM) were cultured axenically at 37^∘C in 25-cm^2 flasks containing Diamond's TYI-S-33 medium supplemented with 10% bovine calf serum, 1 mg/mL bovine bile, 0.1 g/L streptomycin and 100 U/mL penicillin. Typically, 50 ml medium was inoculated with 25 × 10^6 cells and after 2 days cells were harvested by chilling the flasks on ice for 30 min for drug susceptibility assays. […] The assays were performed following the procedure described in [Bahadur et al. (2014)], using sterile 96-well white clear-bottom plates. […] Each drug concentration was tested in at least six replicates. MTZ was used as an internal positive control in the assay. The microtiter plates were then incubated at 37^∘C under anaerobic or microaerobic conditions, ensured by the Anaerocult® A or the Anaerocult® […] (Merck), respectively. […] Following 48 h incubation with the compound to be tested, 100 μL of the BacTiter-Glo^TM Microbial Cell Viability Assay System reagent (Promega) was added to each well for one-step lysis and ATP level detection. Plates were then incubated at room temperature for 15 min and ATP levels finally detected by luminescence on a plate reader (Wallac Victor3 1420 Multilabel Counter, PerkinElmer). Luminometric data were calibrated using ATP standard curves and normalized to the ATP level measured in control DMSO-treated cells (taken as 100%). The measured ATP level percentage was plotted as a function of the compound concentration and the half-maximal inhibitory concentration (IC50) was obtained by fitting the resulting titration profile to the Hill equation ([Goutelle et al., 2008]). The selectivity index (SI) of the compounds was then calculated as the ratio between the IC50 value measured on human cells over the value determined on Giardia trophozoites (SI = IC50,Caco-2/IC50,Giardia). The antigiardial activity of the novel compounds 23-67 was tested under both anaerobic and microaerobic conditions. According to ([Dunn et al., 2010]; [Bahadur et al., 2014]), susceptibility of Giardia trophozoites to increasing concentrations of each compound was assessed based on ATP level determination by luminescence. Dose-response curves for each compound were obtained after 48 h-incubation and compared to the data collected under identical conditions with MTZ, the drug of choice for treatment of giardiasis. […] Typical dose-response curves are shown in Figure 2, whereas the IC50 values measured for the synthetic compounds and MTZ under anaerobic and microaerobic conditions are reported in Table 1. […] Under anaerobic conditions, 18 out of the 45 synthetic compounds were as effective as MTZ or more under identical conditions (see Table 1).

[2] = anaerobic conditions (Anaerocult A), read-out: Giardia (anaerobiosis) IC50
[3] = microaerobic conditions (~5% O2, Anaerocult C), read-out: Giardia (microaerobiosis) IC50
[4] = Giardia under anaerobiosis, read-out: Selectivity (IC50,Caco/IC50,Giardia) Anaerobiosis
[5] = Giardia under microaerobiosis, read-out: Selectivity (IC50,Caco/IC50,Giardia) Microaerobiosis

melting point [°C] | Structure (SMILES) | IC50 (Caco-2 cells) [µM] | IC50 [1, 2] [µM] | IC50 [1, 3] [µM] | selectivity ratio at 48 h [1, 4] | selectivity ratio at 48 h [1, 5] | fold more efficient than MTZ against Giardia [1]
203 to 205 | O=C(/C=C/c1cc2ccccc2n(Cc2cn(-c3ccc(F)cc3)nn2)c1=O)c1cccc(F)c1 [Compound 42] | 9.6 | 3.3 | 0.7 | 2.9 | 13.7 | –
202 to 204 | O=C(/C=C/c1cc2ccccc2n(Cc2cn(-c3ccc(F)cc3)nn2)c1=O)c1ccc(F)cc1 [Compound 43] | 7 | 1.2 | 0.3 | 5.8 | 23.3 | three to fourfold
190 to 192 | O=C(/C=C/c1cc2ccccc2n(Cc2cn(-c3ccc(F)cc3)nn2)c1=O)c1ccc(Cl)cc1 [Compound 44] | 7.2 | 1.5 | 1 | 4.8 | 7.2 | –
238 to 240 | O=C(/C=C/c1cc2ccccc2n(Cc2cn(-c3ccc(F)cc3)nn2)c1=O)c1ccc(Br)cc1 [Compound 45] | 16.7 | 1.1 | 0.5 | 15.2 | 33.4 | three to fourfold
132 to 134 | COc1ccccc1C(=O)/C=C/c1cc2ccccc2n(Cc2cn(-c3ccc(F)cc3)nn2)c1=O [Compound 47] | ≥ 20 | 2.7 | 0.3 | ≥ 7 | ≥ 66 | –
220 to 222 | COc1cccc(C(=O)/C=C/c2cc3ccccc3n(Cc3cn(-c4ccc(F)cc4)nn3)c2=O)c1 [Compound 48] | ≥ 60 | 7 | 1.6 | ≥ 8 | ≥ 37 | –
190 to 192 | O=C(/C=C/c1cc2ccccc2n(Cc2cn(-c3ccc(Cl)cc3)nn2)c1=O)c1cccc(F)c1 [Compound 51] | ≥ 100 | 10 | 0.9 | ≥ 10 | ≥ 111 | –
216 to 218 | O=C(/C=C/c1cc2ccccc2n(Cc2cn(-c3ccc(Cl)cc3)nn2)c1=O)c1ccc(F)cc1 [Compound 52] | 23.9 | 8.9 | 1.2 | 2.7 | 19.9 | –
215 to 217 | COc1cccc(C(=O)/C=C/c2cc3ccccc3n(Cc3cn(-c4ccc(Cl)cc4)nn3)c2=O)c1 [Compound 57] | 14.7 | 6.6 | 1.1 | 2.2 | 11.3 | –
202 to 204 | O=C(/C=C/c1cc2ccccc2n(Cc2cn(-c3ccccc3)nn2)c1=O)c1ccc(F)cc1 [Compound 61] | 18.2 | 5.3 | 0.8 | 3.4 | 22.8 | –

More lines, now with the values behind:

Structure (SMILES) | melting point [°C] | IC50 (Caco-2 cells) [µM] | IC50 [1, 2] [µM] | IC50 [1, 3] [µM] | selectivity ratio at 48 h [1, 4] | selectivity ratio at 48 h [1, 5] | fold more efficient than MTZ against Giardia [1]
Cc1ccc(C(=O)/C=C/c2cc3ccccc3n(Cc3cn(-c4ccc(C)cc4)nn3)c2=O)cc1 [Compound 37] | 202 to 204 | ≥ 50 | 6.3 | 1.6 | ≥ 7 | ≥ 31 | –
COc1ccc(C(=O)/C=C/c2cc3ccccc3n(Cc3cn(-c4ccc(C)cc4)nn3)c2=O)cc1 [Compound 40] | 182 to 184 | ≥ 60 | ≥ 15 | 2.4 | – | ≥ 25 | –
O=C(/C=C/c1cc2ccccc2n(Cc2cn(-c3ccc(Cl)cc3)nn2)c1=O)c1ccccc1F [Compound 50] | 242 to 244 | ≥ 50 | 4.7 | 0.9 | ≥ 10 | ≥ 55 | –
O=C(/C=C/c1cc2ccccc2n(Cc2cn(-c3ccc(Cl)cc3)nn2)c1=O)c1ccc(Cl)cc1 [Compound 53] | 180 to 182 | ≥ 30 | 9 | 1.1 | ≥ 3 | ≥ 27 | –
Cc1ccc(C(=O)/C=C/c2cc3ccccc3n(Cc3cn(-c4ccc(Cl)cc4)nn3)c2=O)cc1 [Compound 55] | 217 to 219 | 20 | 8.7 | 1.1 | 2.3 | 18.2 | –
COc1ccccc1C(=O)/C=C/c1cc2ccccc2n(Cc2cn(-c3ccc(Cl)cc3)nn2)c1=O [Compound 56] | 230 to 232 | 8.4 | 3.2 | 0.6 | 2.6 | 14 | –
COc1ccc(C(=O)/C=C/c2cc3ccccc3n(Cc3cn(-c4ccc(Cl)cc4)nn3)c2=O)cc1 [Compound 58] | 210 to 212 | 19.7 | ≥ 100 | ≥ 30 | ≤ 0.2 | ≤ 0.7 | –
O=C(/C=C/c1cc2ccccc2n(Cc2cn(-c3ccccc3)nn2)c1=O)c1ccccc1F [Compound 59] | 172 to 174 | 11.2 | 1.9 | 0.4 | 5.9 | 28 | –
O=C(/C=C/c1cc2ccccc2n(Cc2cn(-c3ccccc3)nn2)c1=O)c1cccc(F)c1 [Compound 60] | 180 to 182 | ≥ 50 | 3.5 | 0.7 | ≥ 14 | ≥ 71 | –
O=C(/C=C/c1cc2ccccc2n(Cc2cn(-c3ccccc3)nn2)c1=O)c1ccc(Cl)cc1 [Compound 62] | 216 to 218 | 5.9 | 2.1 | 0.7 | 2.8 | 8.4 | –
Cc1ccc(C(=O)/C=C/c2cc3ccccc3n(Cc3cn(-c4ccccc4)nn3)c2=O)cc1 [Compound 64] | 216 to 218 | 17.8 | 2.8 | 0.5 | 6.4 | 35.6 | –
